In ChEMBL document CHEMBL5634179, “Phenylhydrazone Alkaloids from the Deep-Sea Cold Seep Derived Fungus Talaromyces amestolkiae HDN21-0307” (J Nat Prod, 2024):
In brackets after ≈: the same amount, converted by molar mass. Counter-ions that a name gives are not always drawn.

What was measured:
[1] = test system: Staphylococcus aureus; assay: Antibacterial activity against methicillin-resistant Staphylococcus aureus assessed as bacterial growth inhibition; assay type: functional
[2] = test system: K562; assay: Cytotoxicity against human K562 cells by MTT assay; assay type: functional, cell-based
[3] = test system: ASPC1; assay: Cytotoxicity against human ASPC1 cells by SRB assay; assay type: functional, cell-based
[4] = test system: NCI-H446; assay: Cytotoxicity against human NCI-H446 cells by SRB assay; assay type: functional, cell-based
[5] = test system: Staphylococcus aureus; assay: Antibacterial activity against Staphylococcus aureus ATCC 29213 assessed as bacterial growth inhibition; assay type: functional
[6] = test system: MDA-MB-231; assay: Cytotoxicity against human MDA-MB-231 cells by SRB assay; assay type: functional, cell-based
[7] = test system: Bacillus cereus; assay: Antibacterial activity against Bacillus cereus ATCC 4342 assessed as bacterial growth inhibition; assay type: functional
[8] = test system: Pseudomonas aeruginosa; assay: Antibacterial activity against Pseudomonas aeruginosa ATCC 27853 assessed as bacterial growth inhibition; assay type: functional
[9] = test system: Acinetobacter baumannii; assay: Antibacterial activity against Acinetobacter baumannii AB34 assessed as bacterial growth inhibition; assay type: functional
[10] = Cytotoxicity against human H446/EP cells by SRB assay; assay type: functional, cell-based
[11] = test system: Staphylococcus; assay: Antibacterial activity against methicillin-resistant coagulase-negative Staphylococcus assessed as bacterial growth inhibition; assay type: functional
[12] = test system: Bacillus subtilis; assay: Antibacterial activity against Bacillus subtilis ATCC 6051 assessed as bacterial growth inhibition; assay type: functional

SMILES | MIC [1] | IC50 [2] | IC50 [3] | IC50 [4] | MIC [5] | IC50 [6] | MIC [7] | MIC [8] | MIC [9] | IC50 [10] | MIC [11] | MIC [12]
COc1cc(O)ccc1N/N=C1\C(=O)C=C(Cc2ccccc2)NC1=O | > 150 mg/L | > 15 µM | > 15 µM | 4.1 µM | 32 mg/L (≈ 91.1 µM) | > 15 µM | > 150 mg/L | > 150 mg/L | > 150 mg/L | > 15 µM | > 150 mg/L | > 150 mg/L
COc1cc(O)ccc1N/N=C1/C=Cc2cc(O)cc(O)c2C1=O | 64 mg/L (≈ 196 µM) | > 15 µM | > 15 µM | > 15 µM | 128 mg/L (≈ 392 µM) | > 15 µM | 128 mg/L (≈ 392 µM) | > 150 mg/L | > 150 mg/L | > 15 µM | 64 mg/L (≈ 196 µM) | 128 mg/L (≈ 392 µM)
COc1cc(O)ccc1N/N=C1/C=Cc2cccc(O)c2C1=O | 128 mg/L (≈ 412 µM) | > 15 µM | > 15 µM | > 15 µM | 128 mg/L (≈ 412 µM) | > 15 µM | 128 mg/L (≈ 412 µM) | > 150 mg/L | > 150 mg/L | > 15 µM | 128 mg/L (≈ 412 µM) | 128 mg/L (≈ 412 µM)
COc1cc(O)ccc1N/N=C1/C(=O)[C@@](C)(OC(=O)c2c(C)cc(O)cc2O)C(=O)C2=C1C=C(/C=C/C(=O)O)OC2 | > 150 mg/L | > 15 µM | > 15 µM | 10.2 µM | 64 mg/L (≈ 113 µM) | > 15 µM | > 150 mg/L | > 150 mg/L | > 150 mg/L | > 15 µM | > 150 mg/L | > 150 mg/L
O=C(O)c1cn(C2CC2)c2cc(N3CCNCC3)c(F)cc2c1=O [CIPROFLOXACIN] | – | – | – | – | – | – | 0.063 mg/L (≈ 0.19 µM) | – | 16 mg/L (≈ 48.3 µM) | – | 4 mg/L (≈ 12.1 µM) | 0.63 mg/L (≈ 1.9 µM)
COc1cccc2c1C(=O)c1c(O)c3c(c(O)c1C2=O)C[C@@](O)(C(=O)CO)C[C@@H]3O[C@H]1C[C@H](N)[C@H](O)[C@H](C)O1 [DOXORUBICIN HYDROCHLORIDE] | – | – | 0.21 µM | 0.6 µM | – | – | – | – | – | 6 µM | – | –
